Numbered stars: 1 amine (or outer) side, 2 acyl side, 3 side chain; on linkers, the order of the positions; unused ones are H or OH. Bridge positions count the residues as written; N and C are the ends. Square brackets hold non-standard residues; d marks the D form. Peptide text beside a SMILES is read from it. Phe(4-OMe) = Yme, 4-methoxy-L-phenylalanine (O-methyl-tyrosine), COc1ccc(C[C@H](N[*:1])C(=O)[*:2])cc1; Tyr(Me) = Yme = 4-methoxy-L-phenylalanine (O-methyl-tyrosine), COc1ccc(C[C@H](N[*:1])C(=O)[*:2])cc1; 1Nal = N[C@@H](Cc1cccc2ccccc12)C(=O)O; 2Nal = N[C@@H](Cc1ccc2ccccc2c1)C(=O)O; Agb = N=C(N)NCC[C@H](N)C(=O)O; Aib = CC(C)(N)C(=O)O; Ahx = NCCCCCC(=O)O
T1: human IL-23R (Homo sapiens, UniProt Q5VWK5)
T1 sequence (Q5VWK5 24-355 limits assumed): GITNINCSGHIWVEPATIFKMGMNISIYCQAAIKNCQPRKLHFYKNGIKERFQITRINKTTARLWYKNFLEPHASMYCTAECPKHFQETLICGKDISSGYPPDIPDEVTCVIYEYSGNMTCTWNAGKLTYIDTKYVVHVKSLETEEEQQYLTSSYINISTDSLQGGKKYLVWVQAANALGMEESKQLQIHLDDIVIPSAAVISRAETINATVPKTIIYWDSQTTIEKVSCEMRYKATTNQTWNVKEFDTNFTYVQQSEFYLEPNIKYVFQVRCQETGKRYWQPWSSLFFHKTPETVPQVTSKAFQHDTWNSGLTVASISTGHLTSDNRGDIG

T2: IL-23 receptor on the surface of HEK-Blue IL-23 cells (UniProt Q5VWK5 24-629, limits assumed)
T2 sequence (looked up): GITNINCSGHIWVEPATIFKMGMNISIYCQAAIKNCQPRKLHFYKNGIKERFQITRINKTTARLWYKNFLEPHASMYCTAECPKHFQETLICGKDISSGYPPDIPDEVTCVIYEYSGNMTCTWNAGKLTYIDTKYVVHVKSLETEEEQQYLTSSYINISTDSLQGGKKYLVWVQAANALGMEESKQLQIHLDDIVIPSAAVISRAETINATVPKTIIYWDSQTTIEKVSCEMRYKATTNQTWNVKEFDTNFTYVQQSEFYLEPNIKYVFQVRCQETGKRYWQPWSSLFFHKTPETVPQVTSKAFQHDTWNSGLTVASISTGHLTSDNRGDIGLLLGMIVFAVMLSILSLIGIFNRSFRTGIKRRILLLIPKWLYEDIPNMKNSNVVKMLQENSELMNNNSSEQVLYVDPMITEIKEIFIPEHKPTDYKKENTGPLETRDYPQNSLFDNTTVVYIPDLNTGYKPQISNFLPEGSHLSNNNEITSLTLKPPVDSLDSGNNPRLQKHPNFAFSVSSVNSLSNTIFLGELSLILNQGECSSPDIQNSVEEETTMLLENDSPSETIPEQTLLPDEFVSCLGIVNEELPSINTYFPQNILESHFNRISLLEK

T3: recombinant human IL-23R-Fc chimera (human, UniProt Q5VWK5 24-353, limits assumed)
T3 construct: Recombinant reagent; also called interleukin-23 receptor; not shown: detected with goat anti-hu-IgG1-HRP antibody
T3 sequence (looked up): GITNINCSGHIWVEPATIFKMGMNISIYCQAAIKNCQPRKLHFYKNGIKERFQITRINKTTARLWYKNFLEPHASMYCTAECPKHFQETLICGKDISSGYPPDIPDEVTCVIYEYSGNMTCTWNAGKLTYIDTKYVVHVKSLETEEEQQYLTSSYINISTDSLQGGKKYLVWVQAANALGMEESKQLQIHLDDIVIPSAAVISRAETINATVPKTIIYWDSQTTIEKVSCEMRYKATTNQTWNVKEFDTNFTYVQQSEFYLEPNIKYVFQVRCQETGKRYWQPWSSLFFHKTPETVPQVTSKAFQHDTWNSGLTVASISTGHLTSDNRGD


Assays:
[1] = Chemical stability (relative purity loss) of peptide compounds in buffer formulations; assay type: physicochemical
Method: Purity of a compound batch was determined through UHPLC/MS prior to chemical stability measurement using Method A.
For stability assessment, the target concentration was 300 μM pure compound. Therefore, solutions from solid samples were prepared in the following buffer systems with a concentration of ~300 µM compound based on the previously determined % purity. The solid samples were obtained by drying down aliquots of a freshly prepared acetonitrile stock solution using a THERMO SPEEDVAC vacuum centrifuge. The dry down time was 3 hours.
The following buffer systems were applied: • Solubility buffer system A) 100 mM phosphate buffer pH 7.4. • Solubility buffer system B) 100 mM phosphate buffer pH 6.5. • Solubility buffer system C) 100 mM HCl pH 1.2.
Prepared solutions were filtered through […] pore size and filled into sterilized glass containers under laminar flow conditions.
[…] After this time course, the samples were centrifuged for 15 min at 2500 RCF. Then 1.5 μl of the undiluted supernatant were analysed with UHPLC-UV.
The chemical stability was rated through the relative loss of purity calculated by the equation:
[(purity after 0 hours at 37° C.)(purity after 24 hours at 37° C.)]/(purity after 0 hours at 37° C.)]*100%.
The purity is calculated as [(peak area peptide)/(total peak area)]*100%.
Buffer composition: 100 mM HCl pH 1.2, 100 mM phosphate buffer pH 6.5, 100 mM phosphate buffer pH 7.4

human IL-23R = target: T1, human IL-23R; assay: Human ELISA IL-23/IL-23R binding inhibition; details: human IL-23 coated, recombinant human IL-23R-Fc chimera
Procedure, shortened: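 Plates coated with human IL-23 at 1 μg/ml overnight at 4° C; serially diluted peptides added with recombinant human IL-23R-Fc at 0.1 μg/ml final, 60 min at RT. Bound receptor detected with anti-human IgG1-HRP and a fluorogenic peroxidase substrate.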

[2] = test system: IL-23 induced STAT3 signaling; assay: Inhibition of IL-23 induced STAT3 signaling in HEK-Blue IL-23 cells (SEAP reporter); assay type: cell-based; details: human IL-23 0.25 ng/ml, read-out: Inhibition of IL-23 induced pSTAT3 (IC50 nM)
Procedure, shortened: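 HEK-Blue IL-23 cells (10,000/well) preincubated 60 min at 37 °C with serially diluted compound, then stimulated overnight with human IL-23 (0.25 ng/ml final). STAT3-driven SEAP in supernatant read with QUANTI-Blue after 45 min at room temperature, OD 620-655 nm; dose-response fitted.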

[3] = target: T2, IL-23 receptor on the surface of …; assay: cell-based or functional assay
[4] = target: T3, recombinant human IL-23R-Fc chimera; assay: competition ELISA: coated human IL-23, IL-23R-Fc 0.1 ug/ml, peptide titrated
Method: Antagonism of peptide compounds for human interleukin-23 receptor inhibitors, was determined by an ELISA assay.
A 384-well plate was coated with 50 μl/well of human IL-23 at a final concentration of 1 μg/ml and incubated overnight at 4° C. The wells were washed 3 times with 80 μl wash buffer and blocked with 80 μl blocking buffer for 60 minutes at room temperature and washed again. 20 μl of serially diluted test peptides was added to each well and subsequently 20 μl of recombinant human IL-23R-Fc chimera at final concentration of 0.1 μg/ml. The plate was incubated for 60 minutes at room temperature. After the wells were washed, bound IL-23R-Fc was detected with goat anti-hu-lgG1-HRP antibody. Signals were visualized with QuantaBlu Fluorogenic Peroxidase Substrate.

[5] = pH 6.5 (100 mM phosphate buffer)
[6] = pH 7.4 (100 mM phosphate buffer)

Conc. [mg/ml] 0 h ([1]; pH 1.2 (100 mM HCl)) [mg/mL] | Conc. [mg/ml] 24 h 37° C. ([1]; pH 1.2 (100 mM HCl)) [mg/mL] | Mass Balance [%] 24 h 37° C. ([1]; pH 1.2 (100 mM HCl)) [%] | Relative Purity Loss [%] 24 h 37° C. ([1]; pH 1.2 (100 mM HCl)) [%] | Conc. [mg/ml] 0 h [1, 5] [mg/mL] | Conc. [mg/ml] 24 h 37° C. [1, 5] [mg/mL] | Mass Balance [%] 24 h 37° C. [1, 5] [%] | Relative Purity Loss [%] 24 h 37° C. [1, 5] [%] | Conc. [mg/ml] 0 h [1, 6] [mg/mL] | Conc. [mg/ml] 24 h 37° C. [1, 6] [mg/mL] | Mass Balance [%] 24 h 37° C. [1, 6] [%] | Relative Purity Loss [%] 24 h 37° C. [1, 6] [%] | IC50 (human IL-23R) [nM] | IC50 [2] [nM] | Inhibition of IL-23 induced pSTAT3 (IC50 nM) [3] [nM] | IC50 [4] [nM] | Molecule
1.1 | 0.7 | −9.6 | 26.5 | 1.5 | 1.5 | −3.9 | 0.3 | 1.1 | 1.0 | −2.3 | 4.7 | 2.47 | 850 | – | – | COc1ccc(C[C@@H]2NC(=O)[C@H](CC(C)C)NC(=O)[C@H](CCC(N)=O)NC(=O)[C@H](Cc3c[nH]c4ccccc34)NC(=O)[C@H]([C@@H](C)O)NC(=O)[C@H](CC(N)=O)NC(=O)[C@H](NC(C)=O)CCCCNC(=O)C[C@@H](C(=O)N[C@@H](CC(N)=O)C(=O)N[C@@H](CC(N)=O)C(N)=O)NC(=O)C(C)(C)NC(=O)[C@H](Cc3cccc4ccccc34)NC2=O)cc1 [compound 7] (Ac-[dK]NTWQLY(Me)[1Nal][Aib]DNN-NH2; lactam 1-10)
0.2 | 0.2 | −2.5 | 26.2 | 0.2 | 0.2 | 4.1 | −1.4 | 0.2 | 0.2 | 4.6 | 2.0 | 2.74 | 943 | – | – | COc1ccc(C[C@@H]2NC(=O)[C@H](C)NC(=O)[C@H](CCC(N)=O)NC(=O)[C@H](Cc3c[nH]c4ccccc34)NC(=O)[C@H]([C@@H](C)O)NC(=O)[C@H](CC(N)=O)NC(=O)[C@H](NC(C)=O)CCCCNC(=O)C[C@@H](C(=O)N[C@@H](CC(N)=O)C(=O)N[C@@H](CC(N)=O)C(N)=O)NC(=O)C(C)(C)NC(=O)[C@H](Cc3cccc4ccccc34)NC2=O)cc1 [compound 8] (Ac-[dK]NTWQAY(Me)[1Nal][Aib]DNN-NH2; lactam 1-10)
– | – | – | – | – | – | – | – | – | – | – | – | – | – | 9280 | 18.9 | Ac-[dD]NTWQR[Tyr(Me)][1Nal][Aib]KNN-NH2 (lactam 1-10; SMILES COc1ccc(C[C@@H]2NC(=O)[C@H](CCCNC(=N)N)NC(=O)[C@H](CCC(N)=O)NC(=O)[C@H](Cc3c[nH]c4ccccc34)NC(=O)[C@H]([C@@H](C)O)NC(=O)[C@H](CC(N)=O)NC(=O)[C@H](NC(C)=O)CC(=O)NCCCC[C@@H](C(=O)N[C@@H](CC(N)=O)C(=O)N[C@@H](CC(N)=O)C(N)=O)NC(=O)C(C)(C)NC(=O)[C@H](Cc3cccc4ccccc34)NC2=O)cc1) [peptide compound SEQ ID NO: 11]
– | – | – | – | – | – | – | – | – | – | – | – | – | – | – | 3.11 | [Ahx]NTWQ[Agb][Phe(4-OMe)][2Nal][Aib]ENN-NH2 (lactam N-10; SMILES COc1ccc(C[C@@H]2NC(=O)[C@H](CCNC(=N)N)NC(=O)[C@H](CCC(N)=O)NC(=O)[C@H](Cc3c[nH]c4ccccc34)NC(=O)[C@H]([C@@H](C)O)NC(=O)[C@H](CC(N)=O)NC(=O)CCCCCNC(=O)CC[C@@H](C(=O)N[C@@H](CC(N)=O)C(=O)N[C@@H](CC(N)=O)C(N)=O)NC(=O)C(C)(C)NC(=O)[C@H](Cc3ccc4ccccc4c3)NC2=O)cc1) [peptide compound SEQ ID NO: 40]
